The text below walks through data of patent US10538797B2, “Method for the biotechnological production of flavone glycoside dihydrochalcones” (priority 2014, dated 2020).

The assay relates to E. coli BL21 transformed with pET28_CHI_ΔLid and pET22_ERED. Kind of assay: Whole-cell biocatalysis of naringin. Format: cell-based. To be noted: 150 μM naringin, cell suspension OD=150 in 20 mM TRIS-HCl pH 7.5, gassed with nitrogen, 23° C., 900 rpm, 22 h. How it is done:
After successful cloning the plasmid pET28_CHI_ΔLid (FIG. 1) together with the plasmid pET22_ERED was transformed into E. coli BL21.
200 mL LBkan, amp were inoculated with 1% (v/v) of an overnight culture and grown at 37° C. to an OD≥1. The induction of the expression was then carried out with 0.1 mM IPTG. The expression of the protein was carried out for 21 h at 20° C.
After the harvesting of the cells these were normalised with 20 mM TRIS-HCl pH 7.5 to an OD=150. For the implementation of the biocatalyses in each case 490 μL of the cell suspension was added with 10 μL naringin solution (stock solution: 7.5 mM naringin dissolved in 1,2-propylene glycol; final concentration: 150 μM) to a 2 mL Eppendorf reaction vessel and gassed with nitrogen. The biocatalyses were carried out at 23° C., 900 rpm and 22 h. The extraction of the substrates was carried out twice with ethyl acetate.

Consider `C[C@@H]1O[C@@H](O[C@H]2[C@H](Oc3cc(O)c4c(c3)O[C@H](c3ccc(O)cc3)CC4=O)O[C@H](CO)[C@@H](O)[C@@H]2O)[C@H](O)[C@H](O)[C@H]1O` [naringin], for which the “conversion of the naringin” value is 65%.
